# How the values were obtained:
# Assay type in all cases: in vivo
# various plants = experiment: Greenhouse multispecies herbicide screen, statements on all tested plants; settings: High HYVAR; all other tested conditions; after two weeks
# Text: (§1) Several plant species including weeds and crops are used in these experiments.
# (§2) A number of herbicides from various chemical classes were compared in a multispecies screen for percent chlorosis, necrosis and vigor reduction both with and without application of the enzyme from Pseudomonas mendocina ATCC 53552 described earlier. The herbicides were applied to various plants at the manufacturers recommended doses and at 10% and 40% of the recommended dose. Two different enzyme concentrations were used: 0.5 mg/ml (HE) and 0.05 mg/ml (LE) and applied at the rate of 40 gallons/acre. All spraying solutions were at pH 10 and contained 100 mm sodium phosphate each. […] All the experiments were carried out in a greenhouse.
# Alfalfa = experiment: Greenhouse multispecies herbicide screen with/without P. mendocina enzyme
# Description: as §1
# as §2, with “The herbicides were applied to various plants at the manufacturers recommended doses and at 10% and 40% of the recommended dose.” left out
# (§3) Chlorosis--figures represent percent of plants showing chlorosis.
# (§4) Necrosis--figures represent percent of plants showing necrosis.
# (§5) Vigor--figures represent percent of plants showing decreased vigor.
# (§6) Phytotoxicity--figures represent the average percent of chlorosis, necrosis, and vigor for a given sample.
# Barnyard Grass = experiment: as above
# Description: as §1
# as §2, with “The herbicides were applied to various plants at the manufacturers recommended doses and at 10% and 40% of the recommended dose.” left out
# as §3, §4, §5, §6
# [1] = test system: Beefsteak Tomato seedlings; experiment: HYVAR uptake by whole plants, effect of macerating enzymes (GC219); set-up: key: -=No phytotoxicity; +=Some phytotoxicity seen in area of treatment.; ++=Phytotoxicity seen outside area of treatment
# Description: 13-16 day old Beefsteak Tomato seedlings were treated with solutions of HYVAR herbicides [5-bromo-6-methyl-3-(1-methylpropyl)-2,4-(1H,3H)-pyrimidinedione] and GC219. Solutions of Hyvar and GC219 were made up on DI H2 O and 1% ethanol and adjusted with 0.1N HCL to a final pH of 4.0. 10 ul of solution was applied to each cotyledon and 15 ul to each secondary pentafoliate leaflet. 10 tomato seedlings were used for each test solutions. Observations were made daily after treatment for 4 days.
# HYVAR herbicide [5-bromo-6-methyl-3-(1-methylpropyl)-2,4-(1H,3H)-pyrimidinedione] was diluted 1:200 or 1:400 for each experiment.
# Giant Fox Tail = experiment: Greenhouse multispecies herbicide screen with/without P. mendocina enzyme; settings: HYVAR 18%, two weeks after treatment
# [2] = HYVAR 10% dose, High Enzyme, one week after treatment
# [3] = HYVAR 10% dose, Low Enzyme, one week after treatment
# [4] = HYVAR 10% dose, No Enzyme, one week after treatment
# [5] = HYVAR 18%, High Enzyme, two weeks after treatment
# [6] = HYVAR 18%, Low Enzyme, two weeks after treatment
# [7] = HYVAR 18%, No Enzyme, two weeks after treatment
# [8] = HYVAR 40% dose, High Enzyme, one week after treatment
# [9] = HYVAR 40% dose, Low Enzyme, one week after treatment
# [10] = HYVAR 40% dose, No Enzyme, one week after treatment
# [11] = HYVAR 100% dose, No Enzyme, one week after treatment
compound,measurement,setting,value
"CCC(C)n1c(=O)[nH]c(C)c(Br)c1=O (stereo not shown) [HYVAR, 5-bromo-6-methyl-3-(1-methylpropyl)-2,4-(1H,3H)-pyrimidinedione]",kill,various plants,100%
same,CHL (chlorosis),Alfalfa; [2],18%
same,NEC (necrosis),Alfalfa; [2],0%
same,PHY (phytotoxicity),Alfalfa; [2],10%
same,VIG (vigor),Alfalfa; [2],10%
same,CHL (chlorosis),Alfalfa; [3],50%
same,NEC (necrosis),Alfalfa; [3],5%
same,PHY (phytotoxicity),Alfalfa; [3],28%
same,VIG (vigor),Alfalfa; [3],30%
same,CHL (chlorosis),Alfalfa; [4],10%
same,NEC (necrosis),Alfalfa; [4],5%
same,PHY (phytotoxicity),Alfalfa; [4],8%
same,VIG (vigor),Alfalfa; [4],10%
same,CHL (chlorosis),Alfalfa; [5],100%
same,NEC (necrosis),Alfalfa; [5],100%
same,PHY (phytotoxicity),Alfalfa; [5],100%
same,VIG (vigor),Alfalfa; [5],100%
same,CHL (chlorosis),Alfalfa; [6],100%
same,NEC (necrosis),Alfalfa; [6],100%
same,PHY (phytotoxicity),Alfalfa; [6],100%
same,VIG (vigor),Alfalfa; [6],100%
same,CHL (chlorosis),Alfalfa; [7],55%
same,NEC (necrosis),Alfalfa; [7],58%
same,PHY (phytotoxicity),Alfalfa; [7],57%
same,VIG (vigor),Alfalfa; [7],58%
same,CHL (chlorosis),Alfalfa; [8],30%
same,NEC (necrosis),Alfalfa; [8],13%
same,PHY (phytotoxicity),Alfalfa; [8],24%
same,VIG (vigor),Alfalfa; [8],30%
same,CHL (chlorosis),Alfalfa; [9],30%
same,NEC (necrosis),Alfalfa; [9],30%
same,PHY (phytotoxicity),Alfalfa; [9],37%
same,VIG (vigor),Alfalfa; [9],50%
same,CHL (chlorosis),Alfalfa; [10],25%
same,NEC (necrosis),Alfalfa; [10],5%
same,PHY (phytotoxicity),Alfalfa; [10],15%
same,VIG (vigor),Alfalfa; [10],15%
same,CHL (chlorosis),Alfalfa; [11],50%
same,NEC (necrosis),Alfalfa; [11],10%
same,PHY (phytotoxicity),Alfalfa; [11],37%
same,VIG (vigor),Alfalfa; [11],50%
same,CHL (chlorosis),Barnyard Grass; [2],25%
same,NEC (necrosis),Barnyard Grass; [2],10%
same,PHY (phytotoxicity),Barnyard Grass; [2],28%
same,VIG (vigor),Barnyard Grass; [2],50%
same,CHL (chlorosis),Barnyard Grass; [3],50%
same,NEC (necrosis),Barnyard Grass; [3],18%
same,PHY (phytotoxicity),Barnyard Grass; [3],39%
same,VIG (vigor),Barnyard Grass; [3],50%
same,CHL (chlorosis),Barnyard Grass; [4],30%
same,NEC (necrosis),Barnyard Grass; [4],25%
same,PHY (phytotoxicity),Barnyard Grass; [4],28%
same,VIG (vigor),Barnyard Grass; [4],30%
same,CHL (chlorosis),Barnyard Grass; [5],95%
same,NEC (necrosis),Barnyard Grass; [5],88%
same,PHY (phytotoxicity),Barnyard Grass; [5],90%
same,VIG (vigor),Barnyard Grass; [5],88%
same,CHL (chlorosis),Barnyard Grass; [6],88%
same,NEC (necrosis),Barnyard Grass; [6],85%
same,PHY (phytotoxicity),Barnyard Grass; [6],86%
same,VIG (vigor),Barnyard Grass; [6],85%
same,CHL (chlorosis),Barnyard Grass; [7],85%
same,NEC (necrosis),Barnyard Grass; [7],78%
same,PHY (phytotoxicity),Barnyard Grass; [7],80%
same,VIG (vigor),Barnyard Grass; [7],78%
same,CHL (chlorosis),Barnyard Grass; [8],55%
same,NEC (necrosis),Barnyard Grass; [8],50%
same,PHY (phytotoxicity),Barnyard Grass; [8],45%
same,VIG (vigor),Barnyard Grass; [8],30%
same,CHL (chlorosis),Barnyard Grass; [9],55%
same,NEC (necrosis),Barnyard Grass; [9],60%
same,PHY (phytotoxicity),Barnyard Grass; [9],59%
same,VIG (vigor),Barnyard Grass; [9],63%
same,CHL (chlorosis),Barnyard Grass; [10],65%
same,NEC (necrosis),Barnyard Grass; [10],30%
same,PHY (phytotoxicity),Barnyard Grass; [10],50%
same,VIG (vigor),Barnyard Grass; [10],55%
same,CHL (chlorosis),Barnyard Grass; [11],50%
same,NEC (necrosis),Barnyard Grass; [11],60%
same,PHY (phytotoxicity),Barnyard Grass; [11],62%
same,VIG (vigor),Barnyard Grass; [11],75%
same,PHYTOTOXICITY RATING,"[1]; HYVAR (1:400 dilution), Day 2",-
same,PHYTOTOXICITY RATING,"[1]; HYVAR (1:400 dilution), Day 3",-
same,PHYTOTOXICITY RATING,"[1]; HYVAR alone (1:200 dilution), Day 1",-
same,PHYTOTOXICITY RATING,"[1]; HYVAR alone (1:200 dilution), Day 2",+
same,PHYTOTOXICITY RATING,"[1]; first experiment (1:200), HYVAR + 6.28 mg/ml GC219, Day 1",+
same,PHYTOTOXICITY RATING,"[1]; first experiment (1:200), HYVAR + 6.28 mg/ml GC219, Day 2",++
same,PHYTOTOXICITY RATING,"[1]; second experiment (1:400), HYVAR + 6.28 mg/ml GC219, Day 2",+
same,PHYTOTOXICITY RATING,"[1]; second experiment (1:400), HYVAR + 6.28 mg/ml GC219, Day 3",++
same,PHYTOTOXICITY RATING,"[1]; second experiment (1:400), HYVAR + 12.6 mg/ml GC219, Day 2",++
same,PHYTOTOXICITY RATING,"[1]; second experiment (1:400), HYVAR + 12.6 mg/ml GC219, Day 3",++
same,CHL (chlorosis),Giant Fox Tail; High Enzyme,75%
same,NEC (necrosis),Giant Fox Tail; Low Enzyme,73%
same,VIG (vigor),Giant Fox Tail; Low Enzyme,73%
